The target in series [1] is T1, inositol monophosphatase (EC 3.1.3.25) (Bos taurus, UniProt P20456).
T1 construct: host or cells: animal brain or recombinant E. coli expressing animal IMPase
T1 sequence (P20456 1-277): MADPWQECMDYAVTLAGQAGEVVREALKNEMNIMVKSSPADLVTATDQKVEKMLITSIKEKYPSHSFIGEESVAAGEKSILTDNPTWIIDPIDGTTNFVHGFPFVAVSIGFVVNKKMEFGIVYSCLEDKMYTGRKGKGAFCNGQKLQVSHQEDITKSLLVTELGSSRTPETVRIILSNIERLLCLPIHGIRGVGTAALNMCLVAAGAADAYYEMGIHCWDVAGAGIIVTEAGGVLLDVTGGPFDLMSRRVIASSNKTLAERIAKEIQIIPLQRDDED
Description: inhibition of inositol monophosphatase (IMPase, EC 3.1.3.25); phosphate liberated from 4 mM 2-glycerolphosphate, molybdate coloration. The following applies: for IC50: Table 1, pH 7.5, 4 mM 2-glycerolphosphate, 5 ug/ml IMPase, 30 minutes, read-out: IC50 (amount of inhibitor required to inhibit the enzyme activity by 50%) (converted). The class given is biochemical, animal. The text has this: For determining said activity, IMPase with a purity higher than 90% as judged by SDS-PAGE (sodium dodecyl sulphate polyacrylamide gel electrophoresis) is purified as described in P. D. Pelton and A. J.
Ganzhorn, Journal Biolog. Chem., 267, 1992, pp. 5916-5920. The enzyme can be purified from animal brain or from recombinant E. coli strains expressing animal IMPase. Although crude enzyme preparations can also be used it is preferable to use purified enzyme. The purified enzyme routinely has a specific activity of 25 μmol of Pi/min/mg of protein as determined in a standard assay (P. V. Attwood et al., Biochem. Jour., 1988, 253, pp. 387-394) with 4 mH 2-glycerolphosphate as substrate.
The enzyme activity may be determined according to A. J. Ganzhorn and M. C. Chanal, Biochem., 1990, 29; the reaction mixture contains 50mM Tris-HCl, pH 7.5, 2 mM magnesium chloride and 0.1 mM EGTA. Then, 5 ug/ml of IMPase and 4 mM of 2-glycerolphosphate substrate are added to the reaction mixture; alternatively, it is also possible to add the substrate directly into the reaction mixture, before adding the enzyme.
The reaction is considered terminated after 30 minutes from the addition of the substrate or the enzyme (depending on which one is added later); the liberated phosphate is determined by molybdate coloration (P. V. Attwood et al., Biochem. Jour., 1988, 253, pp. 387-394) at 350 nm with a Shimadzu spectrophotometer UV 2100.
The enzyme reaction is performed either in the absence or in the presence of various concentrations of 6'β-Stachybotrydial or MDL63394 to determine the amount of inhibitor required to inhibit the enzyme activity by 50% (IC50); the results are reported in Table 1, compared with the activity of L-671,776.

A further series deals with complement system. The following applies: literature statement; cited from earlier work.
The subject of a further series is inositol monophosphatase. The following applies: literature statement; cited from earlier work.
Series [2] relates to manic symptoms / bipolar disorder. Conditions: cited from earlier work.
The conditions of series [3]: cited from earlier work.

“Also recorded” adds a separate entry of the source.

As usually defined, the IC50 is the midpoint of a concentration-inhibition curve. As to `C[C@@H]1CCC2C(C)(C)[C@@H](O)CC[C@]2(C)[C@@]12Cc1c(O)cc(C=O)c(C=O)c1O2` (stereo partly drawn) [6'β-Stachybotrydial], the IC50 in series [1] was 64.7 µM. In addition, the “inhibitory activity against the enzyme inositol monophosphatase” value in series [1] (qualitative statement) is on record as “show inhibitory activity”.
Take `C[C@@H]1CCC2C(C)(C)[C@H](O)C(O)C[C@]2(C)[C@@]12Cc1c(O)cc(C=O)c(C=O)c1O2` (stereo partly shown) [K-76]: the “inhibitor of the complement system” value in the series with complement system is recorded as “inhibitor of the complement system”.
On to `CC1CCC2C(C)(C)C(O)CCC2(C)C12Cc1c(O)cc(CO)c(C=O)c1O2` [L-671,776], for which the IMPase-inhibiting activity result with inositol monophosphatase is “shows the above IMPase-inhibiting activity”. Moreover, in series [1], the IC50 was 463 µM.
For lithium, in series [2] (acute bipolar disorder), the “time to exert antimanic effect” value was 7 to 10 days. The “antimanic / prophylactic effect” value in series [2] (manic patients) is “highly specific in alleviating manic symptoms; also recorded: clear prophylaxis against disease recurrences and deterioration has been demonstrated”. For the same compound, the IMPase-inhibiting activity entry with inositol monophosphatase is on record as “inhibits the activity of said enzyme”. Besides, in series [3] (lithium therapy), the adverse effects entry is “can cause a transient leukocytosis, can cause patients with a borderline thyroid reserve to become clinically hypothyroid, and can decompensate cardiac status due to shifts in fluids and electrolytes; also recorded: Structural lesions in kidney, such as interstitial fibrosis, tubular atrophy and glomerular sclerosis; also recorded: tremor, weight gain, diarrhea and skin rash”. In addition, in series [3] (treated patients), the “occurrence of polyuria-polydipsia syndrome” value is “up to 60%”.
